From patent US7795254B2, “Benzomorpholine derivatives and methods of use” (Amgen Inc., priority 2007, dated 2010) come the findings set out here.

One may read the IC50 as the concentration needed to halve the response being measured. As usually defined, the AUC is concentration integrated over time. A word on the clearance: it is a measure of how efficiently the substance is removed, as volume per time.

For data set [1], the system named is HUVEC. As to the kind of experiment: VEGF induced proliferation, HUVEC cell-based assay. The following applies: Homo sapiens.
The test system of data set [2] is VEGF-induced rat corneal angiogenesis. As to the kind of experiment: VEGF-induced rat corneal angiogenesis assay. Format: in vivo. The following applies: for Average # of Vessels: 7 days. On the procedure: (§1) Tables 2 through 6 below describe the results obtained in the rat corneal in vivo model of angiogenesis for (1) reference compound (free base) 1, (2) Compound A (free base), and (3) the hydrochloride salt of Compound A. A VEGF-induced rat corneal angiogenesis assay was performed using the following procedure: • In Life Aspects: Female CD rats weighing approximately 250 grams were randomized into one of six treatment groups. On the day of surgery the rats were temporarily anesthetized using isoflurane. A vertical incision was made on the midline of the cornea and a pocket was created to separate the connective tissue layers of the stroma. The distance between the apex of the pocket and the limbus was approximately 1.8 mm. A presoaked nylon filter disk was inserted to the apex of the pocket (in the case of the control treatment group, the disks were soaked in a buffer containing bovine serum albumin; in the remaining treatment groups, the disks were soaked in buffer containing bovine serum albumin plus human VEGF to induce angiogenesis). The different treatment groups were then dosed daily with either vehicle (Ora Plus™, a commercially available vehicle) or a designated amount of test compound formulated in vehicle. • Study Termination and Analysis: After seven days, the rats were euthanized and the implanted corneas photographed using a Nikon SV-3 Ophthalmic Slit Lamp. Numerical data were generated from the digital images using the Metamorph image analysis system (Universal Imaging). Three endpoints were analyzed on each corneal image: (1) disk placement distance from the limbus, (2) number of vessels intersecting a perpendicular line at the midpoint of the disk placement distance, and (3) blood vessel area, as determined by thresholding and automated pixel counting. Only the number of blood vessels is shown in the tables as this endpoint correlated well with the blood vessel area. • Statistical Analysis: Results were analyzed with the StatView statistical program using one-way ANOVA, followed by Fisher's least significant difference test. Data are presented as mean±SE and P<0.05 was considered significant. AUC and ED50 values were calculated using methods well known in the art.

Data set [3] can be described thus: Exposure (AUC) in the rat corneal angiogenesis study. It counts as in vivo. The following applies: female, CD, rat, in vivo. On the procedure:
as §1

Data set [4] in a line: Rat pharmacokinetic profile. The following applies: in vivo. From the text:
(§2) Table 7 provides additional information about the pharmacokinetic profiles of reference compound 1 and Compound A. The data contained in this table was obtained using methods well known in the art.

Data set [5] concerns Rat Liver Microsome. Description: Rat liver microsome clearance. Format: in vitro ADME. The following applies: rat liver microsomes.
Text: as §2
(In general: Liver microsomes are a subcellular fraction often used to study metabolism.)

In data set [6] the test system is Human Liver Microsome. Description: Human liver microsome clearance. Format: in vitro ADME. The following applies: human liver microsomes.
Text: as §2

The target in data set [7] is KDR (Homo sapiens, UniProt P35968). As to the kind of experiment: KDR inhibition of metabolites. Format: biochemical. The following applies: metabolites of Compound A.
Sequence of KDR (P35968 20-1356, species assumed): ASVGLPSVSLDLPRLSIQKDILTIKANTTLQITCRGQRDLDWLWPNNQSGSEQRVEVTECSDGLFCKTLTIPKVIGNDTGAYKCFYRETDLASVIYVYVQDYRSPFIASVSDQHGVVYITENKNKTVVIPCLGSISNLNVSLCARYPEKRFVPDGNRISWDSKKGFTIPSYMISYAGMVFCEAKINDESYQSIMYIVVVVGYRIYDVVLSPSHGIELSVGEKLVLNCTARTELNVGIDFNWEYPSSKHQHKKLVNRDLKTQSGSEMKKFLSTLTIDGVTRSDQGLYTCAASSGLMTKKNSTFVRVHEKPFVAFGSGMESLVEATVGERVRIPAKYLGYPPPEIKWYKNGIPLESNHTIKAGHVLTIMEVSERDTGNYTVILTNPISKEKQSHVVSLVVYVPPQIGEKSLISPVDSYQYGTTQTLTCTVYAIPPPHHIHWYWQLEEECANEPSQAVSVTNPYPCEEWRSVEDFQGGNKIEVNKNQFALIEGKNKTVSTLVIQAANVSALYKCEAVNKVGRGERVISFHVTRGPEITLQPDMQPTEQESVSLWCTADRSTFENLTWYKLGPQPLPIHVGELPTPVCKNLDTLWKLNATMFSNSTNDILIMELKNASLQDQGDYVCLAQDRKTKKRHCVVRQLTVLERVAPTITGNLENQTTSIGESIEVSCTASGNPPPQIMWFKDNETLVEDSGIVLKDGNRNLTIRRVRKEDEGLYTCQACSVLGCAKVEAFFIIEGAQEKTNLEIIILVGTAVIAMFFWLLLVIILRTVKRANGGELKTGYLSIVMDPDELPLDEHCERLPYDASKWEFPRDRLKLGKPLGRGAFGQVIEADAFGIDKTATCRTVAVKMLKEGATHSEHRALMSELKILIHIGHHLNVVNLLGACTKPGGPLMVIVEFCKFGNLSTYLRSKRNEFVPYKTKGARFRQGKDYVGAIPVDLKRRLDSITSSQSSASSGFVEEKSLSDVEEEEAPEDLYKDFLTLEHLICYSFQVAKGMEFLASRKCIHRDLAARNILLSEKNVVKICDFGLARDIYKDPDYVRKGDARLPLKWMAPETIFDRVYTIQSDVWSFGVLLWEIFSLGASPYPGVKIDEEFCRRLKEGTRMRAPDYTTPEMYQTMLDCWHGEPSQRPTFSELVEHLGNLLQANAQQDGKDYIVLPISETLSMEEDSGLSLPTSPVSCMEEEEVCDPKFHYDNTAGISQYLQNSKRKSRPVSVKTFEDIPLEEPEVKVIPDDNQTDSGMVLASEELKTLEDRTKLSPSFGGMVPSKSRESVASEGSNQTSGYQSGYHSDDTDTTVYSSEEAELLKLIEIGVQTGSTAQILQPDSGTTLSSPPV
Data set [8] can be described thus: Water absorption of the hydrous hydrochloride form. Format: physicochemical. The following applies: 90% relative humidity and 25° C. From the text:
The hydrochloride salt is formed by preparing a solution of Compound A free base in ethanol and adding hydrochloric acid in slight molar excess with stirring and optional heat. Spontaneous salt formation occurred both with and without the application of heating and cooling. The hydrochloride salt is known to exist in at least one anhydrous form, which has been confirmed by single-crystal X-ray analysis, and at least one hydrous form. The anhydrous form of the hydrochloride salt is crystalline and decomposes near 230° C. when heated at a rate of 10° C./minute. The hydrous form of Compound A hydrochloride has been obtained by suspending the anhydrous hydrochloride material in water or in dilute aqueous solutions of hydrochloric acid. The hydrous material is crystalline, can freely absorb up to 4 molar equivalents of water at 90% relative humidity and 25° C., and appears to fully dehydrate by 150° C. and decompose near 170° C. when heated at a rate of 10° C./minute. Both the anhydrous and hydrous forms of Compound A hydrochloride have unique X-ray powder diffraction patterns, the major peaks of which are described below: […]

SMILES strings stand for the structures. Counter-ions that a name gives are not always drawn. Like-named read-outs stand apart in the source and are kept apart here.

With `COc1cc2nccc(Oc3ccc4c(c3)OCCN4C(=O)Nc3ccon3)c2cc1OC` [Reference Compound 1, reference compound], the IC50 in data set [1] is 7 nM. Also, the ED50 is above 0.3 mg/kg in data set [2] (Rattus norvegicus, Table 2, free base, number of vessels, read-out: ED50); above 0.3 mpk in data set [2] (free base, review of Tables 2 and 3). Also, the “Average # of Vessels” value amounted to 22.0 in data set [2] (Table 2, free base, VEGF disc + 0.01 mg/kg daily); 25.4 in data set [2] (Table 2, free base, VEGF disc + 0.03 mg/kg daily); 19.3 in data set [2] (Table 2, free base, VEGF disc + 0.1 mg/kg daily); 15.9 in data set [2] (Table 2, free base, VEGF disc + 0.3 mg/kg daily). For the same compound, the area under the curve (AUC) in data set [3] (oral, 0.03 mg/kg, Table 2, free base, 0.03 mg/kg daily) came out at 22.5 ng·h/mL; in data set [3] (oral, 0.1 mg/kg, Table 2, free base, 0.1 mg/kg daily) it was 68.5 ng·h/mL; in data set [3] (oral, 0.3 mg/kg, Table 2, free base, 0.3 mg/kg daily) it was 205 ng·h/mL. The compound also showed a clearance in data set [4] (intravenous) of 13.3 mL/min/kg. Also, the Vd in data set [4] (intravenous, read-out: Rat Volume of Distribution) turned out to be 1 L/kg. The half-life in data set [4] (iv, I.V., read-out: Rat I.V. T1/2 (converted)) is 4.73 h; in data set [4] (po, 2 mpk, P.O., read-out: Rat P.O. T1/2 (converted)) it was 2.4 h. Besides, the bioavailability in data set [4] (po, 2 mg/kg, P.O., 2 mpk, read-out: Rat P.O. (2 mpk) % F) is 67%. In data set [4] (po, 2 mg/kg, P.O., 2 mpk, read-out: Rat P.O. (2 mpk) AUC0-inf), the AUC(0-inf) is 1710 ng·h/mL. Also, the AUC(0-t) in data set [4] (po, 2 mg/kg, P.O., 2 mpk, read-out: Rat P.O. (2 mpk) AUC0-t) was 1700 ng·h/mL. Besides, the “Rat Liver Microsome” value in data set [5] was 65 µL/min/mg. In addition, the “Human Liver Microsome” value in data set [6] turned out to be 29 µL/min/mg.

For `COc1cc2nccc(Oc3ccc4c(c3)OCCN4C(=O)Nc3cc(C)on3)c2cc1O` [7-(6-hydroxy-7-methoxyquinolin-4-yloxy)-N-(5-methylisoxazol-3-yl)-2,3-dihydrobenzo[b][1,4]oxazine-4-carboxamide], the IC50 in data set [7] stood at 1.68 nM.

On to `COc1cc2nccc(Oc3ccc4c(c3)OCCN4C(=O)Nc3cc(CO)on3)c2cc1OC` [7-(6,7-dimethoxyquinolin-4-yloxy)-N-(5-(hydroxymethyl)isoxazol-3-yl)-2,3-dihydrobenzo[b][1,4]oxazine-4-carboxamide hydrochloride], for which, in data set [7], the IC50 worked out at 1.04 nM.

With `COc1cc2c(Oc3ccc4c(c3)OCCN4C(=O)Nc3cc(C)on3)cc[n+]([O-])c2cc1OC` [Compound A N-oxide], the IC50 in data set [7] is 5000 nM.

As for `COc1cc2nccc(Oc3ccc4c(c3)OCCN4C(=O)Nc3cc(C)on3)c2cc1OC` [Compound A (HCl Salt)], the ED50 in data set [2] (Rattus norvegicus, Table 4, HCl salt Run # 1, number of vessels, read-out: ED50) came out at 0.04 mg/kg; in data set [2] (Rattus norvegicus, Table 5, HCl salt Run #2, number of vessels, read-out: ED50), 0.15 mg/kg. In addition, the “Average # of Vessels” value in data set [2] (Table 4, HCl salt Run # 1, VEGF disc + 0.03 mg/kg daily) is recorded as 15.3; in data set [2] (Table 4, HCl salt Run # 1, VEGF disc + 0.1 mg/kg daily) it was 9.3; in data set [2] (Table 4, HCl salt Run # 1, VEGF disc + 0.3 mg/kg daily), 4.3; in data set [2] (Table 4, HCl salt Run # 1, VEGF disc + 1.0 mg/kg daily) it was 0.4; in data set [2] (Table 5, HCl salt Run #2, VEGF disc + 0.01 mg/kg daily), 28.9; in data set [2] (Table 5, HCl salt Run #2, VEGF disc + 0.03 mg/kg daily) it was 25.5. Moreover, the “Average # of Vessels” value in data set [2] (Table 5, HCl salt Run #2, VEGF disc + 0.1 mg/kg daily) came out at 18.0; in data set [2] (Table 5, HCl salt Run #2, VEGF disc + 0.3 mg/kg daily), 7.3; in data set [2] (Table 6, HCl salt Run #3, VEGF disc + 0.01 mg/kg daily), 28.4; in data set [2] (Table 6, HCl salt Run #3, VEGF disc + 0.03 mg/kg daily) it was 32.0; in data set [2] (Table 6, HCl salt Run #3, VEGF disc + 0.1 mg/kg daily) it was 15.4; in data set [2] (Table 6, HCl salt Run #3, VEGF disc + 0.3 mg/kg daily), 4.8. Besides, the exposure (AUC) in data set [3] (0.01 mg/kg, Table 5, HCl salt Run #2, 0.01 mg/kg daily) is 95.8 ng·h/mL; in data set [3] (0.03 mg/kg, Table 4, HCl salt Run # 1, 0.03 mg/kg daily), 162 ng·h/mL; in data set [3] (0.03 mg/kg, Table 5, HCl salt Run #2, 0.03 mg/kg daily) it was 272 ng·h/mL; in data set [3] (0.1 mg/kg, Table 4, HCl salt Run # 1, 0.1 mg/kg daily) it was 460 ng·h/mL; in data set [3] (0.1 mg/kg, Table 5, HCl salt Run #2, 0.1 mg/kg daily) it was 954 ng·h/mL; in data set [3] (0.3 mg/kg, Table 4, HCl salt Run # 1, 0.3 mg/kg daily) it was 1190 ng·h/mL. The AUC in data set [3] (0.3 mg/kg, Table 5, HCl salt Run #2, 0.3 mg/kg daily) is 3900 ng·h/mL; in data set [3] (1 mg/kg, Table 4, HCl salt Run # 1, 1.0 mg/kg daily), 3640 ng·h/mL; in data set [3] (oral, 0.01 mg/kg, Table 6, HCl salt Run #3, 0.01 mg/kg daily) it was 21.8 ng·h/mL; in data set [3] (oral, 0.03 mg/kg, Table 6, HCl salt Run #3, 0.03 mg/kg daily) it was 80.2 ng·h/mL; in data set [3] (oral, 0.1 mg/kg, Table 6, HCl salt Run #3, 0.1 mg/kg daily), 322 ng·h/mL; in data set [3] (oral, 0.3 mg/kg, Table 6, HCl salt Run #3, 0.3 mg/kg daily), 677 ng·h/mL. Besides, the water absorbed entry in data set [8] is listed as “up to 4 molar equivalents of water”.

`COc1cc2c(Oc3ccc4c(c3)OCCN4C(=O)Nc3cc(C)on3)ccnc2cc1O` [7-(7-hydroxy-6-methoxyquinolin-4-yloxy)-N-(5-methylisoxazol-3-yl)-2,3-dihydrobenzo[b][1,4]oxazine-4-carboxamide]: the half-inhibitory concentration (IC50) in data set [7] came out at 777 nM.
